Test results as given in patent US11053234B2 (GlaxoSmithKline Intellectual Property Development Limited, priority 2016, dated 2021).
Where a name gives a salt, the structure may show the parent alone.

Target: T1, haematopoietic prostaglandin D synthase (H-PGDS) (Homo sapiens, UniProt O60760)
T1 construct: Full length human H-PGDS cDNA (Invitrogen Ultimate ORF 10H13026) was amplified by PCR; 6-His (N); TEV protease cleavage site (N); made in house; host or cells: E. coli BL21 (DE3*), vector pET22b+
T1 sequence (O60760 whole entry): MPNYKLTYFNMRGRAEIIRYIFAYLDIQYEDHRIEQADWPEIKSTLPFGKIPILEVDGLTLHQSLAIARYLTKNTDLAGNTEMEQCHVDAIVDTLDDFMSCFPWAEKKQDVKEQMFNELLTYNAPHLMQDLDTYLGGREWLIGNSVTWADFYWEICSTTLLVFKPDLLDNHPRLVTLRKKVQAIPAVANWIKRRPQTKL
Test: H-PGDS RapidFire high throughput mass spectrometry assay (conversion of PGH2 to PGD2)
Type: biochemical
Settings: 10 nM H-PGDS, PGH2 formed in situ by COX-2 from arachidonic acid; read-out: Potency Range (mean pIC50) (converted)
Procedure, shortened: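 PGH2 substrate generated in situ by COX-2 (full-length human, FLAG-tagged, Sf9-expressed) from arachidonic acid at ˜10 μM, then converted by full-length human His-tagged H-PGDS (E. coli-expressed). RapidFire SPE–triple quadrupole MS measured PGD2 against PGF2α as substrate surrogate to give percent conversion.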

SMILES | IC50
Cc1cccc(NC(=O)[C@H]2C[C@H](Oc3cccc4cccnc34)C2)n1 [Example 181, (trans)-N-(6-Methylpyridin-2-yl)-3-(quinolin-8-yloxy)cyclobutanecarboxamide] | 10 to 79.4 nM
C[C@]1(O)CC[C@H](NC(=O)[C@H]2C[C@H](Oc3cccc4cccnc34)C2)CC1 [Example 182, (trans)-N-((trans)-4-Hydroxy-4-methylcyclohexyl)-3-(quinolin-8-yloxy)cyclobutanecarboxamide] | 100 to 1000 nM
O=C(Nc1ccccn1)[C@H]1C[C@H](Oc2cccc3cccnc23)C1 [Example 183, (trans)-N-(Pyridin-2-yl)-3-(quinolin-8-yloxy)cyclobutanecarboxamide] | 100 to 1000 nM
O=C(Nc1nccs1)[C@H]1C[C@H](Oc2cccc3cccnc23)C1 [Example 184, trans-3-(8-Quinolinyloxy)-N-1,3-thiazol-2-ylcyclobutanecarboxamide] | < 10 nM
CC(C)(O)[C@H]1CC[C@H](NC(=O)N2CC(Oc3cccc4cccnc34)C2)CC1 [Example 185, N-((trans)-4-(2-Hydroxypropan-2-yl)cyclohexyl)-3-(quinolin-8-yloxy)azetidine-1-carboxamide] | 10 to 79.4 nM
CC(=O)c1csc(NC(=O)[C@H]2C[C@H](Oc3cccc4cccnc34)C2)n1 [Example 186, trans-N-(4-Acetylthiazol-2-yl)-3-(quinolin-8-yloxy)cyclobutanecarboxamide] | 10 to 79.4 nM
N#Cc1csc(NC(=O)[C@H]2C[C@H](Oc3cccc4cccnc34)C2)n1 [Example 188, (trans)-N-(4-Cyanothiazol-2-yl)-3-(quinolin-8-yloxy)cyclobutanecarboxamide, trifluoroacetic acid salt] | < 10 nM
NC(=O)c1csc(NC(=O)[C@H]2C[C@H](Oc3cccc4cccnc34)C2)n1 [Example 189, 2-((trans)-3-(Quinolin-8-yloxy)cyclobutanecarboxamido)thiazole-4-carboxamide, trifluoroacetic acid salt] | 10 to 79.4 nM
N#Cc1cnc(NC(=O)[C@H]2C[C@H](Oc3cccc4cccnc34)C2)s1 [Example 190, (trans)-N-(5-Cyanothiazol-2-yl)-3-(quinolin-8-yloxy)cyclobutanecarboxamide] | 10 to 79.4 nM
NC(=O)c1cnc(NC(=O)[C@H]2C[C@H](Oc3cccc4cccnc34)C2)s1 [Example 191, 2-((trans)-3-(Quinolin-8-yloxy)cyclobutanecarboxamido)thiazole-5-carboxamide] | 10 to 79.4 nM
CCOC(=O)c1csc(NC(=O)[C@H]2C[C@H](Oc3cccc4cccnc34)C2)n1 [Example 192, Ethyl 2-((trans)-3-(quinolin-8-yloxy)cyclobutanecarboxamido)thiazole-4-carboxylate] | < 10 nM
O=C(O)c1csc(NC(=O)[C@H]2C[C@H](Oc3cccc4cccnc34)C2)n1 [Example 193, 2-((trans)-3-(Quinolin-8-yloxy)cyclobutanecarboxamido)thiazole-4-carboxylic acid] | 10 to 79.4 nM
O=C(c1csc(NC(=O)[C@H]2C[C@H](Oc3cccc4cccnc34)C2)n1)C1CC1 [Example 194, (trans)-N-(4-(Cyclopropanecarbonyl)thiazol-2-yl)-3-(quinolin-8-yloxy)cyclobutanecarboxamide] | 10 to 79.4 nM
CNC(=O)c1csc(NC(=O)[C@H]2C[C@H](Oc3cccc4cccnc34)C2)n1 [Example 196, N-Methyl-2-((trans)-3-(quinolin-8-yloxy)cyclobutanecarboxamido)thiazole-4-carboxamide, trifluoroacetic acid salt] | 10 to 79.4 nM
CN(C)C(=O)c1csc(NC(=O)[C@H]2C[C@H](Oc3cccc4cccnc34)C2)n1 [Example 197, N,N-Dimethyl-2-((trans)-3-(quinolin-8-yloxy)cyclobutanecarboxamido)thiazole-4-carboxamide, trifluoroacetic acid salt] | < 10 nM
CC(C)c1nnc(NC(=O)[C@H]2C[C@H](Oc3cccc4cccnc34)C2)s1 [Example 198] | 10 to 79.4 nM
O=C(Nc1nnc(C2CC2)s1)[C@H]1C[C@H](Oc2cccc3cccnc23)C1 [Example 199, (trans)-N-(5-Cyclopropyl-1,3,4-thiadiazol-2-yl)-3-(quinolin-8-yloxy)cyclobutanecarboxamide] | 10 to 79.4 nM
CC(C)(O)c1csc(NC(=O)[C@H]2C[C@H](Oc3cccc4cccnc34)C2)n1 [Example 200, (trans)-N-(4-(2-Hydroxypropan-2-yl)thiazol-2-yl)-3-(quinolin-8-yloxy)cyclobutanecarboxamide] | 10 to 79.4 nM
O=C(Nc1nc(C(F)(F)F)cs1)[C@H]1C[C@H](Oc2cccc3cccnc23)C1 [Example 201, (trans)-3-(Quinolin-8-yloxy)-N-(4-(trifluoromethyl)thiazol-2-yl)cyclobutanecarboxamide] | 10 to 79.4 nM

SMILES | IC50
CC(=O)c1cnc(NC(=O)[C@H]2C[C@H](Oc3cccc4cccnc34)C2)s1 [Example 202, (trans)-N-(5-Acetylthiazol-2-yl)-3-(quinolin-8-yloxy)cyclobutanecarboxamide] | 10 to 79.4 nM
Cc1nnc(NC(=O)[C@H]2C[C@H](Oc3cccc4cccnc34)C2)s1 [Example 203, (trans)-N-(5-Methyl-1,3,4-thiadiazol-2-yl)-3-(quinolin-8-yloxy)cyclobutanecarboxamide] | 10 to 79.4 nM
CC(C)(O)c1cnc(NC(=O)[C@H]2C[C@H](Oc3cccc4cccnc34)C2)s1 [Example 204, (trans)-N-(5-(2-Hydroxypropan-2-yl)thiazol-2-yl)-3-(quinolin-8-yloxy)cyclobutanecarboxamide] | 10 to 79.4 nM
C=C(C)c1cnc(NC(=O)[C@H]2C[C@H](Oc3cccc4cccnc34)C2)s1 [Example 205, (trans)-N-(5-(Prop-1-en-2-yl)thiazol-2-yl)-3-(quinolin-8-yloxy)cyclobutanecarboxamide] | < 10 nM
CC(C)c1csc(NC(=O)[C@H]2C[C@H](Oc3cccc4cccnc34)C2)n1 [Example 206, (trans)-N-(4-Isopropylthiazol-2-yl)-3-(quinolin-8-yloxy)cyclobutanecarboxamide] | < 10 nM
O=C(Nc1nc(C2CC2)cs1)[C@H]1C[C@H](Oc2cccc3cccnc23)C1 [Example 207, (trans)-N-(4-Cyclopropylthiazol-2-yl)-3-(quinolin-8-yloxy)cyclobutanecarboxamide] | < 10 nM
O=C(Nc1ncco1)[C@H]1C[C@H](Oc2cccc3cccnc23)C1 [Example 208, (trans)-N-(Oxazol-2-yl)-3-(quinolin-8-yloxy)cyclobutanecarboxamide] | 100 to 1000 nM
CC(C)(O)Cc1csc(NC(=O)[C@H]2C[C@H](Oc3cccc4cccnc34)C2)n1 [Example 209, (trans)-N-(4-(2-Hydroxy-2-methylpropyl)thiazol-2-yl)-3-(quinolin-8-yloxy)cyclobutanecarboxamide trifluoroacetic acid salt] | 10 to 79.4 nM
O=C(Nc1ncc(CO)s1)[C@H]1C[C@H](Oc2cccc3cccnc23)C1 [Example 210, (trans)-N-(5-(Hydroxymethyl)thiazol-2-yl)-3-(quinolin-8-yloxy)cyclobutanecarboxamide] | 10 to 79.4 nM
CC(C)(C)c1csc(NC(=O)[C@H]2C[C@H](Oc3cccc4cccnc34)C2)n1 [Example 211, (trans)-N-(4-(tert-Butyl)thiazol-2-yl)-3-(quinolin-8-yloxy)cyclobutanecarboxamide] | 10 to 79.4 nM
CC(C)(O)Cc1cnc(NC(=O)[C@H]2C[C@H](Oc3cccc4cccnc34)C2)s1 [Example 213, (trans)-N-(5-(2-Hydroxy-2-methylpropyl)thiazol-2-yl)-3-(quinolin-8-yloxy)cyclobutanecarboxamide] | 10 to 79.4 nM
Cn1nc(C2CC2)cc1NC(=O)[C@H]1C[C@H](Oc2cccc3cccnc23)C1 [Example 214, (trans)-N-(3-Cyclopropyl-1-methyl-1H-pyrazol-5-yl)-3-(quinolin-8-yloxy)cyclobutanecarboxamide] | 100 to 1000 nM
O=C(Nc1nc(CO)cs1)[C@H]1C[C@H](Oc2cccc3cccnc23)C1 [Example 215, (trans)-N-(4-(Hydroxymethyl)thiazol-2-yl)-3-(quinolin-8-yloxy)cyclobutanecarboxamide] | 10 to 79.4 nM
O=C(Nc1nncs1)[C@H]1C[C@H](Oc2cccc3cccnc23)C1 [Example 216, (trans)-3-(Quinolin-8-yloxy)-N-(1,3,4-thiadiazol-2-yl)cyclobutanecarboxamide] | 10 to 79.4 nM
Cc1cnc(NC(=O)[C@H]2C[C@H](Oc3cccc4cccnc34)C2)s1 [Example 217, (trans)-N-(5-Methylthiazol-2-yl)-3-(quinolin-8-yloxy)cyclobutanecarboxamide] | 10 to 79.4 nM
Cc1csc(NC(=O)[C@H]2C[C@H](Oc3cccc4cccnc34)C2)n1 [Example 218, (trans)-N-(4-Methylthiazol-2-yl)-3-(quinolin-8-yloxy)cyclobutanecarboxamide] | 10 to 79.4 nM
CS(=O)(=O)N1CCC(NC(=O)[C@H]2C[C@H](Oc3cccc4cccnc34)C2)CC1 [Example 219, (trans)-N-(1-(Methylsulfonyl)piperidin-4-yl)-3-(quinolin-8-yloxy)cyclobutanecarboxamide] | 100 to 1000 nM
CC(C)(O)CO[C@H]1CC[C@H](NC(=O)[C@H]2C[C@H](Oc3cccc4cccnc34)C2)CC1 [Example 220, (trans)-N-((trans)-4-(2-Hydroxy-2-methylpropoxy)cyclohexyl)-3-(quinolin-8-yloxy)cyclobutanecarboxamide] | 100 to 1000 nM
O=C(Nc1nccs1)[C@H]1C[C@H](Nc2cccc3cccnc23)C1 [Example 221, (trans)-3-(Quinolin-8-ylamino)-N-(thiazol-2-yl)cyclobutanecarboxamide] | 100 to 1000 nM
